Data reported in patent US20230057984A1, “NORMALIZATION OF CULTURE OF CORNEAL ENDOTHELIAL CELLS” (KYOTO PREFECTURAL PUBLIC UNIVERSITY CORPORATION, priority 2011, published 2023).

Columns and labels:
Type in all cases: cell-based
[1] = test system: Cynomolgus monkey corneal endothelial cells; experiment: Culture of monkey corneal endothelial cells with SB431542, cell form by phase-contrast microscope (Example 2); conditions: primate CEC primary culture, base culture medium with 1 μmol/l SB431542; control showed fibroblast phenotype
Description: • Cynomolgus monkey corneal endothelial cells (MCEC; source of supply and culturing method): the MCECs were cultured by the improved-type protocol described previously [Koizumi N, et al. (2007) Invest Ophthalmol Vis Sci 48: 4519-4526], [Li W, et al. (2007) Invest Ophthalmol Vis Sci 48: 614-620]. Briefly speaking, eyeballs of cynomolgus monkeys, which were humanely killed for another purpose, were purchased (Nissei Bilis Co., Ltd., Ohtsu, Japan and Keari Co., Ltd., Wakayama, Japan) (the method is described above). The Descemet's membrane including corneal endothelial cells were exfoliated, and the corneal endothelial cells were mechanically exfoliated together with basement membranes, followed by treatment using dispase or collagenase (ROCHE catalog number: 10 103 586 001) and then primary culture. Typically, treatment was performed using 1 mg/mL collagenase A (Roche Applied Science, Penzberg, Germany) at 37° C. for 2 hours. For the culture medium, DMEM (INVITROGEN catalog number 12320) was used with 10% FBS (BIOWEST, catalog number: S1820-500) and 2 ng/ml basic FGF (INVITROGEN, catalog number: 13256-029) added thereto. […] In addition, after the cells were fixed, immunostaining was performed using ZO-1, Na^+/K^+-ATPase as a function-associated marker, followed by observation through a fluorescence microscope. […]

[2] = test system: Cynomolgus monkey corneal endothelial cells; experiment: PCR of Na+/K+-ATPase and ZO-1 mRNA in monkey corneal endothelial cells (Example 3); conditions: monkey CEC treated with SB431542 vs fibroblast phenotype control
Description: Method of culturing and the like was conducted in a similar manner as the Comparative Examples. In particular, materials similar to those in Example 2 were used. • SB431542: this was obtained from TOCRIS (catalog number: 1614). • Antibodies to Na^+/K^+-ATPase: those obtained from MILLIPORE (catalog number: 05-369) were used. • Antibodies to ZO-1: mice, those obtained from INVITROGEN (catalog number: 339100) were used; and rabbits, those obtained from ZYMED LABORATORIES (catalog number: 61-7300) were used. • Antibodies to GAPDH: those obtained from ABCAM (catalog number: ab36840) were used. • Immunostaining and the like: cells cultured in a similar manner to Example 2 were fixed and immunostaining was performed on Na^+/K^+-ATPase and ZO-1, followed by taking an image using a fluorescence microscope. • Western blot method: similar to Example 1, a Western blot method was performed on the Na^+/K^+-ATPase, ZO-1, and GAPDH. • Realtime PCR method: in addition, PCR was performed for Na^+/K^+-ATPase, ZO-1, and GAPDH in the following method. The primers were purchased from an oligonucleotide synthesizing company, INVITROGEN, and desalted primer were used. […] Amplified DNA fragments were electrophoresed in a 1.5% agarose gel, and were detected by ethidium bromide staining.

[3] = test system: Human corneal endothelial cells; experiment: ELISA of type 1 collagen in culture supernatant of HCEC; conditions: HCEC with vs without SB431542, n=5, P<0.05
Description: Corneal endothelial cells were mechanically exfoliated together with basement membranes from research corneas purchased from the Seattle bank, followed by exfoliating from the basement membranes using collagenase for collection, and then primary culturing. […] The collected human corneal endothelial cells were divided into two, and one group of them was cultured with the base culture medium as a control, and the other group of them was cultured with a base culture medium with SB431542 (TOCRIS, catalog number: 1614) added thereto such that the final concentration would be 1 μmol/L. • Enzyme-linked immunosorbent assay (ELISA): type 1 collagen in a culture supernatant of HCEC was assayed by using a ELISA kits for Collagen Type I Alpha 2 (COL1a2) (Uscn Life Science Inc., Wuhan, China) in accordance with the instruction manual of the manufacturer. Culture supernatants derived from HCEC, cultured together with SB431542 or without SB431542, were used for respective groups (n=5).

Structure (SMILES): NC(=O)c1ccc(-c2nc(-c3ccc4c(c3)OCO4)c(-c3ccccn3)[nH]2)cc1 [SB431542]
- cell form in phase difference images [1]: a true shape of a polygonal cell and a single layer of a contact inhibition type
- expression of Na+/K+-ATPase and ZO-1, mRNA level (PCR) [2]: strongly enhanced
- secretion of collagen type 1 to the cell supernatant (ELISA) [3]: significantly down-regulated
